In PMC10866072, “Design, synthesis, molecular modelling and biological evaluation of novel 6-amino-5-cyano-2-thiopyrimidine derivatives as potent anticancer agents against leukemia and apoptotic inducers” (Journal of Enzyme Inhibition and Medicinal Chemistry, 2024):

How the values were obtained:
[1] = tested on: CCRF-CEM; assay type: cell-based; settings: Homo sapiens, one dose 10^-5 M, 48 h
[2] = tested on: HL-60(TB); assay type: cell-based; settings: Homo sapiens, one dose 10^-5 M, 48 h
[3] = tested on: K-562; assay type: cell-based; settings: Homo sapiens, K562, one dose 10^-5 M, 48 h
[4] = tested on: MOLT-4; assay type: cell-based; settings: Homo sapiens, one dose 10^-5 M, 48 h, read-out: % growth
[5] = tested on: RPMI-8226; assay type: cell-based; settings: Homo sapiens, one dose 10^-5 M, 48 h
[6] = tested on: SR; assay type: cell-based; settings: Homo sapiens, one dose 10^-5 M, 48 h
[7] = tested on: A549/ATCC; assay type: cell-based; settings: Homo sapiens, one dose 10^-5 M, 48 h
[8] = tested on: EKVX; assay type: cell-based; settings: Homo sapiens, one dose 10^-5 M, 48 h
[9] = tested on: HOP-62; assay type: cell-based; settings: Homo sapiens, one dose 10^-5 M, 48 h
[10] = tested on: HOP-92; assay type: cell-based; settings: Homo sapiens, one dose 10^-5 M, 48 h
[11] = tested on: NCI-H226; assay type: cell-based; settings: Homo sapiens, one dose 10^-5 M, 48 h
[12] = tested on: NCI-H23; assay type: cell-based; settings: Homo sapiens, one dose 10^-5 M, 48 h, read-out: % growth
[13] = tested on: NCI-H460; assay type: cell-based; settings: Homo sapiens, one dose 10^-5 M, 48 h, read-out: % growth
[14] = tested on: NCI-H522; assay type: cell-based; settings: Homo sapiens, one dose 10^-5 M, 48 h
[15] = tested on: COLO 205; assay type: cell-based; settings: Homo sapiens, one dose 10^-5 M, 48 h
[16] = tested on: HCC-2998; assay type: cell-based; settings: Homo sapiens, one dose 10^-5 M, 48 h
[17] = tested on: HCT-116; assay type: cell-based; settings: Homo sapiens, one dose 10^-5 M, 48 h, read-out: % growth
[18] = tested on: HCT-15; assay type: cell-based; settings: Homo sapiens, one dose 10^-5 M, 48 h, read-out: % growth
[19] = tested on: HT29; assay type: cell-based; settings: Homo sapiens, HT-29, one dose 10^-5 M, 48 h
[20] = tested on: KM12; assay type: cell-based; settings: Homo sapiens, one dose 10^-5 M, 48 h
[21] = tested on: SW-620; assay type: cell-based; settings: Homo sapiens, one dose 10^-5 M, 48 h
[22] = tested on: SF-268; assay type: cell-based; settings: Homo sapiens, one dose 10^-5 M, 48 h, read-out: % growth
[23] = tested on: SF-295; assay type: cell-based; settings: Homo sapiens, one dose 10^-5 M, 48 h
[24] = tested on: SF-539; assay type: cell-based; settings: Homo sapiens, one dose 10^-5 M, 48 h
[25] = tested on: SNB-19; assay type: cell-based; settings: Homo sapiens, one dose 10^-5 M, 48 h, read-out: % growth
[26] = tested on: U251; assay type: cell-based; settings: Homo sapiens, U-251, one dose 10^-5 M, 48 h
[27] = tested on: LOX IMVI; assay type: cell-based; settings: Homo sapiens, one dose 10^-5 M, 48 h, read-out: % growth
[28] = tested on: MALME-3M; assay type: cell-based; settings: Homo sapiens, one dose 10^-5 M, 48 h
[29] = tested on: M14; assay type: cell-based; settings: Homo sapiens, one dose 10^-5 M, 48 h
[30] = tested on: MDA-MB-435; assay type: cell-based; settings: Homo sapiens, one dose 10^-5 M, 48 h, read-out: % growth
[31] = tested on: SK-MEL-2; assay type: cell-based; settings: Homo sapiens, one dose 10^-5 M, 48 h
[32] = tested on: SK-MEL-28; assay type: cell-based; settings: Homo sapiens, one dose 10^-5 M, 48 h
[33] = tested on: SK-MEL-5; assay type: cell-based; settings: Homo sapiens, one dose 10^-5 M, 48 h, read-out: % growth
[34] = tested on: UACC-257; assay type: cell-based; settings: Homo sapiens, one dose 10^-5 M, 48 h
[35] = tested on: UACC-62; assay type: cell-based; settings: Homo sapiens, one dose 10^-5 M, 48 h
[36] = tested on: IGROV1; assay type: cell-based; settings: Homo sapiens, IGROV-1, one dose 10^-5 M, 48 h, read-out: % growth
[37] = tested on: OVCAR-3; assay type: cell-based; settings: Homo sapiens, one dose 10^-5 M, 48 h
[38] = tested on: OVCAR-4; assay type: cell-based; settings: Homo sapiens, one dose 10^-5 M, 48 h
[39] = tested on: OVCAR-5; assay type: cell-based; settings: Homo sapiens, one dose 10^-5 M, 48 h
[40] = tested on: OVCAR-8; assay type: cell-based; settings: Homo sapiens, one dose 10^-5 M, 48 h
[41] = tested on: NCI/ADR-RES; assay type: cell-based; settings: Homo sapiens, one dose 10^-5 M, 48 h
[42] = tested on: SK-OV-3; assay type: cell-based; settings: Homo sapiens, one dose 10^-5 M, 48 h
[43] = tested on: 786-0; assay type: cell-based; settings: Homo sapiens, one dose 10^-5 M, 48 h
[44] = tested on: A498; assay type: cell-based; settings: Homo sapiens, one dose 10^-5 M, 48 h
[45] = tested on: ACHN; assay type: cell-based; settings: Homo sapiens, one dose 10^-5 M, 48 h
[46] = tested on: CAKI-1; assay type: cell-based; settings: Homo sapiens, CAKI-1, 48 h, one dose 10^-5 M, 48 h
[47] = tested on: RXF 393; assay type: cell-based; settings: Homo sapiens, RXF 393, 48 h, one dose 10^-5 M, 48 h, read-out: % growth
[48] = tested on: SN12C; assay type: cell-based, human; settings: Homo sapiens, one dose 10^-5 M, 48 h
[49] = tested on: TK-10; assay type: cell-based; settings: Homo sapiens, one dose 10^-5 M, 48 h
[50] = tested on: UO-31; assay type: cell-based; settings: Homo sapiens, UO-31, 48 h, one dose 10^-5 M, 48 h
[51] = tested on: PC-3; assay type: cell-based; settings: Homo sapiens, one dose 10^-5 M, 48 h
[52] = tested on: DU-145; assay type: cell-based; settings: Homo sapiens, one dose 10^-5 M, 48 h
[53] = tested on: MCF7; assay type: cell-based; settings: Homo sapiens, one dose 10^-5 M, 48 h, read-out: % growth
[54] = tested on: MDA-MB-231/ATCC; assay type: cell-based; settings: Homo sapiens, one dose 10^-5 M, 48 h
[55] = tested on: HS 578T; assay type: cell-based; settings: Homo sapiens; one dose 10^-5 M, 48 h; HS 578T; read-out: % growth
[56] = tested on: BT-549; assay type: cell-based; settings: Homo sapiens, one dose 10^-5 M, 48 h
[57] = tested on: T-47D; assay type: cell-based; settings: Homo sapiens, T47D, one dose 10^-5 M, 48 h, read-out: % growth
[58] = tested on: MDA-MB-468; assay type: cell-based; settings: Homo sapiens, one dose 10^-5 M, 48 h
[59] = tested on: full NCI 60 cell lines panel; settings: for activity at 10 µM: Homo sapiens, 60 cell, read-out: Mean % growth; for activity on all 60 cancer cell lines tested (in words): one dose

N=C(NN=Cc1ccc(Br)cc1)c1c(N)nc(S)nc1-c1ccc(Cl)cc1Cl [Compound 4q, 4-amino-N'-[(4-bromophenyl)methylene]-6–(2,4-dichlorophenyl)-2-mercapto pyrimidine-5-carboximidohydrazide]
% cell growth at 10 µM [1]: 96.8% | % growth at 10 µM [2]: 96.5% | % growth at 10 µM [3]: 92.2% | activity at 10 µM [4]: 91.4% | % growth at 10 µM [5]: 98.8% | percent cell growth at 10 µM [6]: 86.7% | % growth at 10 µM [7]: 98.8% | % cell growth at 10 µM [8]: 108% | % growth at 10 µM [9]: 101% | % growth at 10 µM [10]: 102% | % growth at 10 µM [11]: 107% | activity at 10 µM [12]: 102% | activity at 10 µM [13]: 110% | % growth at 10 µM [14]: 101% | % growth at 10 µM [15]: 114% | % growth at 10 µM [16]: 114% | activity at 10 µM [17]: 96.2% | activity at 10 µM [18]: 108% | % growth at 10 µM [19]: 112% | % growth at 10 µM [20]: 100% | % growth at 10 µM [21]: 108% | activity at 10 µM [22]: 105% | % cell growth at 10 µM [23]: 96.6% | % growth at 10 µM [24]: 102% | activity at 10 µM [25]: 99.2% | % growth at 10 µM [26]: 107% | activity at 10 µM [27]: 109% | % growth at 10 µM [28]: 91.2% | % growth at 10 µM [29]: 101% | activity at 10 µM [30]: 104% | % growth at 10 µM [31]: 109% | % cell growth at 10 µM [32]: 106% | activity at 10 µM [33]: 104% | percent cell growth at 10 µM [34]: 102% | % growth at 10 µM [35]: 96.4% | activity at 10 µM [36]: 105% | % growth at 10 µM [37]: 104% | % growth at 10 µM [38]: 109% | percent cell growth at 10 µM [39]: 119% | % growth of cells at 10 µM [40]: 114% | cell growth percent at 10 µM [41]: 114% | % growth at 10 µM [42]: 103% | % growth at 10 µM [43]: 93.8% | % growth at 10 µM [44]: 129% | % growth at 10 µM [45]: 108% | % growth at 10 µM [46]: 86.9% | activity at 10 µM [47]: 101% | % growth at 10 µM [48]: 103% | % cell growth at 10 µM [49]: 148% | % cell growth at 10 µM [50]: 94.2% | percent cell growth at 10 µM [51]: 102% | % growth at 10 µM [52]: 108% | activity at 10 µM [53]: 90.9% | % growth at 10 µM [54]: 98.5% | activity at 10 µM [55]: 118% | % cell growth at 10 µM [56]: 97.7% | activity at 10 µM [57]: 110% | percent cell growth at 10 µM [58]: 113% | activity at 10 µM ([59]; 48 h): 104% | activity on all 60 cancer cell lines tested (in words) [59]: weak activity

N=C(NN=Cc1ccc(Cl)cc1Cl)c1c(N)nc(S)nc1-c1ccc(Cl)cc1Cl [Compound 4r, 4-amino-6–(2,4-dichlorophenyl)-N'-[(2,4-dichlorophenyl)methylene]-2-mercapto pyrimidine-5-carboximidohydrazide]
% cell growth at 10 µM [1]: 94.9% | % growth at 10 µM [2]: 102% | % growth at 10 µM [3]: 100% | activity at 10 µM [4]: 100% | % growth at 10 µM [5]: 106% | percent cell growth at 10 µM [6]: 92.6% | % growth at 10 µM [7]: 102% | % cell growth at 10 µM [8]: 114% | % growth at 10 µM [9]: 102% | % growth at 10 µM [10]: 78% | % growth at 10 µM [11]: 106% | activity at 10 µM [12]: 104% | activity at 10 µM [13]: 111% | % growth at 10 µM [14]: 100% | % growth at 10 µM [15]: 113% | % growth at 10 µM [16]: 100% | activity at 10 µM [17]: 102% | activity at 10 µM [18]: 113% | % growth at 10 µM [19]: 118% | % growth at 10 µM [20]: 100% | % growth at 10 µM [21]: 105% | activity at 10 µM [22]: 101% | % cell growth at 10 µM [23]: 98.5% | % growth at 10 µM [24]: 101% | activity at 10 µM [25]: 94.6% | % growth at 10 µM [26]: 105% | activity at 10 µM [27]: 104% | % growth at 10 µM [28]: 86.5% | % growth at 10 µM [29]: 97.4% | activity at 10 µM [30]: 113% | % growth at 10 µM [31]: 111% | % cell growth at 10 µM [32]: 113% | activity at 10 µM [33]: 107% | percent cell growth at 10 µM [34]: 106% | % growth at 10 µM [35]: 96.4% | activity at 10 µM [36]: 102% | % growth at 10 µM [37]: 108% | % growth at 10 µM [38]: 104% | percent cell growth at 10 µM [39]: 117% | % growth of cells at 10 µM [40]: 110% | cell growth percent at 10 µM [41]: 111% | % growth at 10 µM [42]: 105% | % growth at 10 µM [43]: 87.5% | % growth at 10 µM [44]: 117% | % growth at 10 µM [45]: 107% | % growth at 10 µM [46]: 109% | activity at 10 µM [47]: 119% | % growth at 10 µM [48]: 102% | % cell growth at 10 µM [49]: 112% | % cell growth at 10 µM [50]: 92.5% | percent cell growth at 10 µM [51]: 98.1% | % growth at 10 µM [52]: 108% | activity at 10 µM [53]: 98.9% | % growth at 10 µM [54]: 101% | activity at 10 µM [55]: 105% | % cell growth at 10 µM [56]: 91.6% | activity at 10 µM [57]: 103% | percent cell growth at 10 µM [58]: 111% | activity at 10 µM ([59]; 48 h): 104% | activity on all 60 cancer cell lines tested (in words) [59]: weak activity | Mean % growth ([59]; one dose 10^-5 M, 48 h, mean over all cell lines): 103.80%
